Here are results for 1 compound from article PMC10349806 (Nature Communications, 2023).

Where “and” joins values, the source holds several entries; their conditions need not be identical. Equal values may be shown once.

The target in one assay is PfCRT^Dd2 (Plasmodium falciparum, UniProt Q9N623, A220S/I356T/K76T/M74I/N326S/N75E/Q271E/R371I). The note with it: cited from earlier work.
The next assay deals with T1, PfCRT variant D311A (Plasmodium falciparum, UniProt Q9N623, A220S/D311A/I356T/K76T/M74I/N326S/N75E/Q271E/R371I).
T1 sequence (Q9N623 1-424 M74I/N75E/K76T/A220S/Q271E/D311A/N326S/I356T/R371I): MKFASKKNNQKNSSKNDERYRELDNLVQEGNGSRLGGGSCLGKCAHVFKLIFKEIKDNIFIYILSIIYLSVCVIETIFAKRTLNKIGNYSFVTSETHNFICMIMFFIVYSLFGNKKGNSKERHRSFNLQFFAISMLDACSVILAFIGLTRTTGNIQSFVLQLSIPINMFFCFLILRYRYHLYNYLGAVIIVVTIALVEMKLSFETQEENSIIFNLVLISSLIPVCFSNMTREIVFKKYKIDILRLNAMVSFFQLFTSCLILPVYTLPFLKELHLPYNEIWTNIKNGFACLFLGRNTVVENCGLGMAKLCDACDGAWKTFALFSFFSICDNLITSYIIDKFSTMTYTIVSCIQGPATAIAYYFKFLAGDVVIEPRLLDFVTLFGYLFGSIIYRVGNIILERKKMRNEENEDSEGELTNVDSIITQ
Description: CQ uptake assay, oocytes expressing D311A. It counts as cell-based. Here is the method: Site-directed mutagenesis of PfCRT^Dd2 was performed as described using the megaprimer method with overlap extension[21],[54]. The primer pairs used are listed in Supplementary Table 6. Please note that a codon-optimized and oocyte-adapted version of PfCRT^Dd2 was used[22] (Supplementary Fig. 16). The resulting DNA fragment was cloned into the SP64T expression vector and verified by sequencing.
Oocytes were obtained as described previously. Briefly, adult (>2 years old) female X. laevis frogs (NASCO) were anesthetized in a cooled solution of ethyl 3-amino benzoate methanesulfonate (0.1%, w/v), followed by a surgical removal of parts of the ovary. The ovary lobes were carefully dissected and small pieces of oocytes were incubated in Ca^2+-free ND96 buffer (96 mM NaCl, 2 mM KCl, 1 mM MgCl2 buffered with 5 mM HEPES/NaOH, pH 7.5) supplemented with collagenase D (0.1%, w/v; Roche), BSA (0.5%, w/v), and 9 mm Na2HPO4 at 18 °C for 14-16 h while gentle shaking. After incubation, the oocytes were carefully washed several times with ND96 buffer (96 mM NaCl, 2 mM KCl, 1.8 mM CaCl2, 1 mM MgCl2 buffered with 5 mM HEPES/NaOH, pH 7.5) supplemented with 100 mg l^−1 gentamycin). Defolliculated and healthy-looking stage V-VI oocytes were manually selected for RNA microinjection. The RNA was generated as following: The codon-optimized sequences of PfCRT variants were cloned into the pSP64T expression vector. After vector linearization using the restriction endonucleases BamHI or SalI (New England Biolabs), transcription was performed using the in vitro SP6 mMessage mMachine Kit (Ambion)[34]. The obtained RNA was kept at −80 °C and diluted with nuclease-free water to a concentration of 0.6 μg μl^−1. Precision-bore glass capillary tubes (3.5-inch glass capillaries; Drummond Scientific Co.) were pulled on a vertical puller (P-87 Flaming/Brown micropipette puller, Sutter Instrument Co.), graduated, and placed on a microinjector (Nanoject II Auto-Nanoliter Injector, Drummond Scientific Co.). 50 nl of nuclease-free water alone (control oocytes) or 50 nl of 0.6 μg μl^−1 RNA were injected under stereomicroscopic control. Injected oocytes were incubated for 46–72 h at 18 °C with twice-daily buffer changes before usage in experiments.
Drug uptake assays were performed as described previously[21],[22],[24],[34]. […] The direction of radio-labeled drug transport is here from the mostly acidic extracellular solution (pH 4.5 or 6.0, as indicated) into the oocyte cytosol (pH ∼ 7.2), which corresponds to the efflux of drug from the acidic digestive vacuole (pH 5.2) into the parasite cytoplasm (pH 7.2). The topology of PfCRT in the oolemma is such that both the N- and C-terminus face the extracellular milieu[3],[22]. In the parasite, the N- and C-terminus face the lumen of the digestive vacuole. CQ uptake kinetics were performed by incubating oocytes in ND96 buffer adjusted to a pH of 4.5, 5.0, 5.5, or 6.0 and supplemented with 50 nM [^3H]CQ and one of 7 different CQ concentrations (10 µM, 50 µM, 100 µM, 200 µM, 300 µM, 400 µM, 500 µM CQ). The reaction was stopped at the 60 min time point, which is in the linear uptake range[22],[34] (Supplementary Fig. 17). For determination of the amount of drug uptake for each oocyte, the reaction medium was removed and the oocytes were washed three times with 2 ml of ice-cold ND96 buffer. Each oocyte was individually transferred to a scintillation vial containing 5% sodium dodecyl sulfate (200 μl) for lysis. The radioactivity of each sample was measured using a liquid scintillation analyzer Tri-Carb 4910 TR (PerkinElmer). Oocytes that were injected with water instead of RNA were analyzed in parallel, representing the uptake of a drug by diffusion and/or endogenous permeation pathways. The resulting value represents the “background“ level of drug accumulation in oocytes (in-depth discussion in[22]). […]

The mark [1] stands for this setting: D311A, 50 µM CQ, 1 h, mean ± SEM.

Sequence of PfCRT^Dd2 (Q9N623 whole entry A220S/I356T/K76T/M74I/N326S/N75E/Q271E/R371I): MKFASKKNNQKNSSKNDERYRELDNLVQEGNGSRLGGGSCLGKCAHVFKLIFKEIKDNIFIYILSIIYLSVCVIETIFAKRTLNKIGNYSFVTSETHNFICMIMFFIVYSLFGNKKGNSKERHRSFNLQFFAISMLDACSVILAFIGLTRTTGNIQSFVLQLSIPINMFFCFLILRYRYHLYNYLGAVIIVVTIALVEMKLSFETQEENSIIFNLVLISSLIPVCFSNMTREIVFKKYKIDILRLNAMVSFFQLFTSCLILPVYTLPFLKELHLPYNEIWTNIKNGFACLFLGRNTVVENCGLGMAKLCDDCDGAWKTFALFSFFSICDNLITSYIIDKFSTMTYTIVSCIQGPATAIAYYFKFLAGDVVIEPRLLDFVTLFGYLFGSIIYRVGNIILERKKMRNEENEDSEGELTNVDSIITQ

For `CCN(CC)CCCC(C)Nc1ccnc2cc(Cl)ccc12` (centres unmarked) [CQ, chloroquine], the “share of full transport velocity” value at PfCRT^Dd2 (at the pH of the digestive vacuole of 5.2) is on record as 60%. Moreover, the “pH of maximal CQ transport activity” value at PfCRT^Dd2 was ~ 6.0 pH. Moreover, on PfCRT variant D311A (setting [1]), the “Activity at pH 4.5” value was found to be 1.07 ± 0.25 pmol h-1 oocyte-1 and the “Activity at pH 6.0” value stood at 3.22 ± 0.61 pmol h-1 oocyte-1. The same compound gave a R-value on PfCRT variant D311A (D311A, CQ transport at pH 4.5 / pH 6.0) of 0.33 ± 0.05. Also, at PfCRT variant D311A (pH 4.5, single replicates, Fig 1d left), the “D311A transport activity pH 4.5” value is 0.58 pmol oocyte-1 h-1 and 1.64 pmol oocyte-1 h-1 and 0.99 pmol oocyte-1 h-1. The “D311A R-value” at PfCRT variant D311A (pH 4.5 vs pH 6.0, Fig 1d left) was 0.22 and 0.35 and 0.42. In addition, at PfCRT variant D311A (pH 6.0, single replicates, Fig 1d left), the “D311A transport activity pH 6.0” value was 2.63 pmol oocyte-1 h-1 and 4.69 pmol oocyte-1 h-1 and 2.33 pmol oocyte-1 h-1.
